The test system of data set [1] is rats. Briefly: Acute single dose oral toxicity in rats. Conditions: single oral dose 2000 mg/kg body weight. It counts as in vivo. On the procedure: The acute single dose oral toxicity of Comparative Example CE2 was examined in rats dosed at 2000 mg/kg body weight. […] Based on this study, the LD50 of CE2 was estimated to be >2000 mg/kg body weight.
A short description of data set [2]: Log KOW (octanol/water partition coefficient) by HPLC, OECD Method 117. It counts as physicochemical. As to the method: In these Examples, values of Log KOW (octanol/water partition coefficients) were determined by HPLC using the method described in OECD Method 117.
Data set [3] concerns rats. The data set can be described thus: 4-hour acute inhalation toxicity in rats (LC-50). It counts as in vivo. Conditions: 4 hr inhalation in air, 14-day post-dose monitoring. On the procedure: The 4-hour acute inhalation toxicity in rats (LC-50) was measured by dosing animals in air at the amounts shown in Table 2 for 4 hours, followed by 14-day post-dose monitoring. Based on the animal test results and the vapor concentration of the test compound, the LC-50 values were estimated.

Regarding NOVEC 7700 [Comparative Example CE2], in the data set with rats [1], the “clinical observations during the post dose recovery period” value is “No adverse clinical observations” and the necropsy results was “normal for all animals”. Besides, in data set [2], the “Log KOW” value is 6.6.
As for `FC(F)(F)C(F)(F)C1(F)OCCC1(C(F)(F)F)C(F)(F)F` (centres unmarked) [Example 1, 2-fluoro-2-(1,1,2,2,2-pentafluoroethyl)-3,3-bis(trifluoromethyl)tetrahydrofuran], the “LC-50 (4 hr Inhalation rats)” value with rats [3] is more than 1000 ppmv. Also, the “Log KOW” value in data set [2] was found to be 4.4.
As for `FC(F)(F)C(F)(F)C(F)(F)C1(C(F)(F)F)CCOC1(F)C(F)(C(F)(F)F)C(F)(F)F` (centres unmarked) [Example 2, 2-fluoro-3-(1,1,2,2,3,3,3-heptafluoropropyl)-2-[1,2,2,2-tetrafluoro-1-(trifluoromethyl)ethyl]-3-(trifluoromethyl)tetrahydrofuran], the “Log KOW” value in data set [2] is 5.8.
In the case of `COC(F)(C(F)(F)C(F)(F)F)C(F)(C(F)(F)F)C(F)(F)F` (centres unmarked) [CE1, NOVEC 7300], the “LC-50 (4 hr Inhalation rats)” value in the data set on rats [3] is listed as more than 430 mg/L. The “Log KOW” value in data set [2] stood at 4.3.

The values above are taken from patent publication US11325893B2, “Hydrofluoroethers and methods of using same” (3M INNOVATIVE PROPERTIES COMPANY, priority 2018, dated 2022).
